Test results reported in ChEMBL document CHEMBL5214932, “A closer look at N2,6-substituted 1,3,5-triazine-2,4-diamines: Advances in synthesis and biological activities” (Eur J Med Chem, 2022).

Legend:
[1] = target: NADPH oxidase 1 (Homo sapiens, UniProt Q9Y5S8); test: Inhibition of human NOX1
[2] = target: NADPH oxidase 2 (Homo sapiens, UniProt P04839); test: Inhibition of human NOX2
[3] = target: NADPH oxidase 3 (Homo sapiens, UniProt Q9HBY0); test: Inhibition of human NOX3
[4] = target: 5-hydroxytryptamine receptor 1A (Homo sapiens, UniProt P08908); test: Displacement of […] from human 5-HT1AR expressed in HEK293 cells by radioligand binding assay; type: cell-based
[5] = target: 5-hydroxytryptamine receptor 7 (Homo sapiens, UniProt P34969); test: Displacement of [3H]-5Carboxyamidotryptamine from human 5-HT7R expressed in HEK293 cells by radioligand binding assay; type: cell-based
[6] = target: D(2) dopamine receptor (Homo sapiens, UniProt P14416); test: Displacement of [3H]-Raclopride from human dopamine D2 receptor expressed in HEK293 cells by radioligand binding assay; type: cell-based
[7] = target: 5-hydroxytryptamine receptor 6 (Homo sapiens, UniProt P50406); test: Displacement of [3H]-LSD from human 5-HT6R expressed in HEK293 cells assessed as binding constant by radioligand binding assay; type: cell-based
[8] = Cytotoxicity against human IM-9 cells assessed as cell growth inhibition; type: toxicity, cell-based
[9] = test system: Jurkat; test: Cytotoxicity against human Jurkat cells assessed as cell growth inhibition; type: functional, cell-based
[10] = test system: Daudi; test: Cytotoxicity against human Daudi cells assessed as cell growth inhibition; type: functional, cell-based
[11] = test system: MCF7; test: Cytotoxicity against human MCF7 cells assessed as cell growth inhibition; type: functional, cell-based
[12] = test system: DU-145; test: Cytotoxicity against human DU-145 cells assessed as cell growth inhibition; type: functional, cell-based
[13] = Cytotoxicity against mouse LL2 cells assessed as cell growth inhibition; type: functional, cell-based; settings: Lewis lung carcinoma
[14] = Cytotoxicity against human MHOC-59 cell assessed as cell growth inhibition; type: functional, cell-based
[15] = test system: AN3-CA; test: Cytotoxicity against human AN3-CA cells assessed as cell growth inhibition; type: functional, cell-based
[16] = test system: HEC-1-A; test: Cytotoxicity against human HEC-1-A cells assessed as cell growth inhibition; type: functional, cell-based
[17] = test system: K562; test: cells; settings: Homo sapiens
Description: Cytotoxicity against human K562 cells assessed as cell growth inhibition

[18] = test system: MDA-MB-231; test: Antiproliferative activity against human MDA-MB-231 cells assessed as cell growth inhibition measured after 72 hrs by MTT assay; type: functional, cell-based; settings: MDA-MB-231, 72 h
[19] = test system: SK-BR-3; test: Antiproliferative activity against human SK-BR-3 cells assessed as cell growth inhibition measured after 72 hrs by MTT assay; type: functional, cell-based; settings: SK-BR-3, 72 h
[20] = test system: MCF7; test: Antiproliferative activity against human MCF7 cells assessed as cell growth inhibition measured after 72 hrs by MTT assay; type: functional, cell-based; settings: MCF7, 72 h
[21] = test system: MCF-10A; test: Antiproliferative activity against human MCF-10A cells assessed as cell growth inhibition measured after 72 hrs by MTT assay; type: functional, cell-based
[22] = test system: Jurkat; test: Cytotoxicity against human Jurkat cells assessed as cell growth inhibition measured after 72 hrs by MTS assay; type: functional, cell-based
[23] = target: NADPH oxidase 4 (Homo sapiens, UniProt Q9NPH5); test: Inhibition of human NOX4
[24] = target: NADPH oxidase 5 (Homo sapiens, UniProt Q96PH1); test: Inhibition of human NOX5
[25] = target: T1, Equilibrative nucleoside transporter 1 (Homo sapiens, UniProt Q99808); test: Inhibition of human ENT1 transfected in nucleoside transporter-deficient pig PK-15 cells assessed as inhibition of [3H]-uridine uptake by liquid scintillation counter analysis; type: cell-based
T1 sequence (Q99808 whole entry): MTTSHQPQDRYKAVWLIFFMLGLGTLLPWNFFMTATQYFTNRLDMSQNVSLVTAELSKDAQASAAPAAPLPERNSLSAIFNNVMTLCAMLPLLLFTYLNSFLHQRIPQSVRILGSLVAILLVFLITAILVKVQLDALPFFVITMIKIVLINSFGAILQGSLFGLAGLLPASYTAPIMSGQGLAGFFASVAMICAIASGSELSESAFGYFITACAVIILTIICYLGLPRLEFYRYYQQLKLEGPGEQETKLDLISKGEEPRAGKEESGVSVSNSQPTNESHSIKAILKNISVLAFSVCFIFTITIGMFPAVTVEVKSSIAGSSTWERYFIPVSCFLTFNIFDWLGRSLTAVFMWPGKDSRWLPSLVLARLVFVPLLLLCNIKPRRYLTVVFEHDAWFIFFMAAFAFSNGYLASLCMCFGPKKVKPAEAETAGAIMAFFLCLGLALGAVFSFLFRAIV

[26] = target: T2, Equilibrative nucleoside transporter 2 (Homo sapiens, UniProt Q14542); test: Inhibition of human ENT2 transfected in nucleoside transporter-deficient pig PK-15 cells assessed as inhibition of [3H]-uridine uptake by liquid scintillation counter analysis; type: cell-based
T2 sequence (Q14542 whole entry): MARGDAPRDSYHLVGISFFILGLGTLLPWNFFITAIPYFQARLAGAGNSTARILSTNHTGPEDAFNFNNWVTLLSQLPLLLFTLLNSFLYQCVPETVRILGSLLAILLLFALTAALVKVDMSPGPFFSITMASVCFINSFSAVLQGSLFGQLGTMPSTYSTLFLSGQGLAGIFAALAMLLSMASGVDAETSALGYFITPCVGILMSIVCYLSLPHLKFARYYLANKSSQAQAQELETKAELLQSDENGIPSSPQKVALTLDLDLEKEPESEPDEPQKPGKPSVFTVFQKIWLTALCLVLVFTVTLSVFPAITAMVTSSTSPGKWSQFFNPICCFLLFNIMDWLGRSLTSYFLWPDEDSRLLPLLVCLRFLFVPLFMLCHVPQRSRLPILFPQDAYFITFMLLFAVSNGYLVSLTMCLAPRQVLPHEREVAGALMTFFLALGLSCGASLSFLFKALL

[27] = target: 5-hydroxytryptamine receptor 2A (Homo sapiens, UniProt P28223); test: Displacement of […] from human 5-HT2AR expressed in HEK293 cells by radioligand binding assay; type: cell-based
[28] = test system: HL-60; test: Cytotoxicity against human HL-60 cells assessed as cell growth inhibition; type: functional, cell-based
[29] = test system: SK-OV-3; test: Cytotoxicity against human SK-OV-3 cells assessed as cell growth inhibition; type: functional, cell-based
[30] = test system: Human immunodeficiency virus 1; test: Antiviral activity against NNRTI resistant HIV1 harboring Leu100IIe mutant infected in human MT4 cells assessed as reduction in virus-induced cytopathic effect measured after 5 days by MTT assay; type: functional, organism-based; settings: Human immunodeficiency virus 1, MT4, 120 h
[31] = test system: Human immunodeficiency virus 1; test: Antiviral activity against NNRTI resistant HIV1 harboring Lys103Asn mutant infected in human MT4 cells assessed as reduction in virus-induced cytopathic effect measured after 5 days by MTT assay; type: functional, organism-based; settings: Human immunodeficiency virus 1, MT4, 120 h
[32] = test system: Human immunodeficiency virus 1; test: Antiviral activity against NNRTI resistant HIV1 harboring Tyr181Cys mutant infected in human MT4 cells assessed as reduction in virus-induced cytopathic effect measured after 5 days by MTT assay; type: functional, organism-based; settings: Human immunodeficiency virus 1, MT4, 120 h
[33] = test system: Human immunodeficiency virus 1; test: Antiviral activity against NNRTI resistant HIV1 harboring Tyr188Leu mutant infected in human MT4 cells assessed as reduction in virus-induced cytopathic effect measured after 5 days by MTT assay; type: functional, organism-based; settings: Human immunodeficiency virus 1, MT4, 120 h
[34] = test system: Human immunodeficiency virus 1; test: Antiviral activity against NNRTI resistant HIV1 LAI infected in human MT4 cells assessed as reduction in virus-induced cytopathic effect measured after 5 days by MTT assay; type: functional, organism-based; settings: Human immunodeficiency virus 1, LAI, MT4, 120 h
[35] = target: T1, Equilibrative nucleoside transporter 1; test: Inhibition of human ENT1 transfected in nucleoside transporter-deficient pig PK-15 cells assessed as inhibition of [3H]-adenosine uptake by liquid scintillation counter analysis; type: cell-based
[36] = target: T2, Equilibrative nucleoside transporter 2; test: Inhibition of human ENT2 transfected in nucleoside transporter-deficient pig PK-15 cells assessed as inhibition of [3H]-adenosine uptake by liquid scintillation counter analysis; type: cell-based

Sequence of NADPH oxidase 2 (P04839 whole entry): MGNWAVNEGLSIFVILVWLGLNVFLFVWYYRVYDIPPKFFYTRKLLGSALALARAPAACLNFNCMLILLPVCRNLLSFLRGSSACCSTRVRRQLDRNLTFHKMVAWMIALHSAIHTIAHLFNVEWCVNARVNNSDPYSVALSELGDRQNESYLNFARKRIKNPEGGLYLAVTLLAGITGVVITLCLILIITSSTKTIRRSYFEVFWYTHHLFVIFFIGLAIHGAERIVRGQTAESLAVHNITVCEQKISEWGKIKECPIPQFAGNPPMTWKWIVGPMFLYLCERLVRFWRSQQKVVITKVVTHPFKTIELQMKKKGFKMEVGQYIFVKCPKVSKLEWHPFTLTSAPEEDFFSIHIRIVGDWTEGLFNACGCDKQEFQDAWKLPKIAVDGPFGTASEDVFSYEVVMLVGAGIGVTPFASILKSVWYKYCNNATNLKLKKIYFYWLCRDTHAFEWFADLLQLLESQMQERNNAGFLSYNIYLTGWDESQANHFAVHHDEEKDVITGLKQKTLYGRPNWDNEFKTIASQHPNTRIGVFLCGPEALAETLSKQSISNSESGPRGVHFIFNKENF
Sequence of 5-hydroxytryptamine receptor 7 (P34969 whole entry): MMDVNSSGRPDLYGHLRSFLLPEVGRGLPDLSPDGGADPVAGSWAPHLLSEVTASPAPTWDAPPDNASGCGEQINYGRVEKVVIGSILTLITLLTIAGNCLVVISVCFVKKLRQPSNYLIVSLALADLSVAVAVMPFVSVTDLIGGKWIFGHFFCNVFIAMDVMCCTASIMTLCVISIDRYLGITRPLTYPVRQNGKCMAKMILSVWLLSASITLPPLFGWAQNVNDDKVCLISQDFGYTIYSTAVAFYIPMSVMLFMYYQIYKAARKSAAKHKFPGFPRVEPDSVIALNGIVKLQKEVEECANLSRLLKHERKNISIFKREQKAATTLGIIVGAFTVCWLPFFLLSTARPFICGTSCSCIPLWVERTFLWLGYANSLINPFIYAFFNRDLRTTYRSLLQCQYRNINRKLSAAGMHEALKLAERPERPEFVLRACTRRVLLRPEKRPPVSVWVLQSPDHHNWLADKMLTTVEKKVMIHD
Sequence of NADPH oxidase 1 (Q9Y5S8 whole entry): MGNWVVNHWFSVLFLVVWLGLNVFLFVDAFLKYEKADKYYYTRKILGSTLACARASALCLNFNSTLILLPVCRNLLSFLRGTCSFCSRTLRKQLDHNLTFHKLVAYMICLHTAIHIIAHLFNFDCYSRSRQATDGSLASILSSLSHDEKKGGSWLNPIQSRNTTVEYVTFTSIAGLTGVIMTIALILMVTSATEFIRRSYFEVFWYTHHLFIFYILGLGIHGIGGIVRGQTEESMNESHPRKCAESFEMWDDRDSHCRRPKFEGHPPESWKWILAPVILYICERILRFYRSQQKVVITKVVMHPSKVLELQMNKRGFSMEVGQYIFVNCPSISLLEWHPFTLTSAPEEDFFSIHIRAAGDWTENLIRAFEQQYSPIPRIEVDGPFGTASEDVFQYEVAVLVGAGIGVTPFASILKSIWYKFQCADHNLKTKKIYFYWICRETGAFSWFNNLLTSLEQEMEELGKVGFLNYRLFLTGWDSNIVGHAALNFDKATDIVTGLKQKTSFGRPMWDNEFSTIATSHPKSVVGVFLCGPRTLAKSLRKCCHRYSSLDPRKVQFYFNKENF
Sequence of NADPH oxidase 3 (Q9HBY0 whole entry): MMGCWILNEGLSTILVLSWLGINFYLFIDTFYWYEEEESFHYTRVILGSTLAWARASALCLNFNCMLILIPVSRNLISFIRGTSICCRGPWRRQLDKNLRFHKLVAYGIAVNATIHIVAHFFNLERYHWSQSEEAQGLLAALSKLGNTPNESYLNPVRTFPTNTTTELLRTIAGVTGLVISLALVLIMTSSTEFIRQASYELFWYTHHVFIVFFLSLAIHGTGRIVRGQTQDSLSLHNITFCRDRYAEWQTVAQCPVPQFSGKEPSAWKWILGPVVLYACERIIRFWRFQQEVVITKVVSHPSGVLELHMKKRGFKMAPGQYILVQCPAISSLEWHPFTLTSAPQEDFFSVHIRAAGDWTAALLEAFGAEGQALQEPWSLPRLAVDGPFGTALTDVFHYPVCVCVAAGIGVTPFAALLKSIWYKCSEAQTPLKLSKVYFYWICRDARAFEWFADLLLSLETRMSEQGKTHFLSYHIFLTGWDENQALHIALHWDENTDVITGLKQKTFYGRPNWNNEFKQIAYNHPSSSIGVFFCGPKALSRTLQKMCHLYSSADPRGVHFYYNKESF
Sequence of 5-hydroxytryptamine receptor 1A (P08908 whole entry): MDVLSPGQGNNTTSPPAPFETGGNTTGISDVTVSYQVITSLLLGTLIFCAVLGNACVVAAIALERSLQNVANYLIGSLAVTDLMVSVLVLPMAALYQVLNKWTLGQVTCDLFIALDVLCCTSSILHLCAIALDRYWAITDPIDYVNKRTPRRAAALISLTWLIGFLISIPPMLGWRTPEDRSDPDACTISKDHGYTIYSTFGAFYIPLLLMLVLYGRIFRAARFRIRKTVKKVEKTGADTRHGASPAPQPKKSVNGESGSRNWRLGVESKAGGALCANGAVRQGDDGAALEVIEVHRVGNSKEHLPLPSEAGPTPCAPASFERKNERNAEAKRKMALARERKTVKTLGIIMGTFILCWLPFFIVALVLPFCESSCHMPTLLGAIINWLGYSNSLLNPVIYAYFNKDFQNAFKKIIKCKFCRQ
Sequence of D(2) dopamine receptor (P14416 whole entry): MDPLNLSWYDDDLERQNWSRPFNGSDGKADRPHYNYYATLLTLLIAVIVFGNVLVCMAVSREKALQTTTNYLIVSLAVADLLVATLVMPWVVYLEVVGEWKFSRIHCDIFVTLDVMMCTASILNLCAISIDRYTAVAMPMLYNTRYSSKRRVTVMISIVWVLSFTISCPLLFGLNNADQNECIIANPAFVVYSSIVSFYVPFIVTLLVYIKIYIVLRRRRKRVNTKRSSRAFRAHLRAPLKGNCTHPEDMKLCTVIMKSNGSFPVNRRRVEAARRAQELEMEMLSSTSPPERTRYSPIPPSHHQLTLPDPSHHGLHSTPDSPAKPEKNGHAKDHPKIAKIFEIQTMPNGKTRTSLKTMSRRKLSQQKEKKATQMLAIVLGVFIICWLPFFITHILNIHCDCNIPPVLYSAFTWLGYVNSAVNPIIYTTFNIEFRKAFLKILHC
Sequence of 5-hydroxytryptamine receptor 2A (P28223 whole entry): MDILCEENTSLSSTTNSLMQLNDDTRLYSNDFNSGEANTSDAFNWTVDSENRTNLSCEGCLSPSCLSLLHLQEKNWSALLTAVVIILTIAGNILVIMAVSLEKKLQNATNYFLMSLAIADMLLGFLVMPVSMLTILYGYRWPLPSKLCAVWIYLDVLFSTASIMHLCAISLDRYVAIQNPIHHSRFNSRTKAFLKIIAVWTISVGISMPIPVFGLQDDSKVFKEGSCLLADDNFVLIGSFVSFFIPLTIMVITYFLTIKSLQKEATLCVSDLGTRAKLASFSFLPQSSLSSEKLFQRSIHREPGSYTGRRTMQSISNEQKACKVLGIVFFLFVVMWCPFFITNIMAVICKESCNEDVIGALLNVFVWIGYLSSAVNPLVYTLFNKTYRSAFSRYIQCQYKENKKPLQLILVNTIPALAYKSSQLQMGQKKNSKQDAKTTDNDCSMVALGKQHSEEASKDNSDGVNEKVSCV
Sequence of NADPH oxidase 4 (Q9NPH5 whole entry): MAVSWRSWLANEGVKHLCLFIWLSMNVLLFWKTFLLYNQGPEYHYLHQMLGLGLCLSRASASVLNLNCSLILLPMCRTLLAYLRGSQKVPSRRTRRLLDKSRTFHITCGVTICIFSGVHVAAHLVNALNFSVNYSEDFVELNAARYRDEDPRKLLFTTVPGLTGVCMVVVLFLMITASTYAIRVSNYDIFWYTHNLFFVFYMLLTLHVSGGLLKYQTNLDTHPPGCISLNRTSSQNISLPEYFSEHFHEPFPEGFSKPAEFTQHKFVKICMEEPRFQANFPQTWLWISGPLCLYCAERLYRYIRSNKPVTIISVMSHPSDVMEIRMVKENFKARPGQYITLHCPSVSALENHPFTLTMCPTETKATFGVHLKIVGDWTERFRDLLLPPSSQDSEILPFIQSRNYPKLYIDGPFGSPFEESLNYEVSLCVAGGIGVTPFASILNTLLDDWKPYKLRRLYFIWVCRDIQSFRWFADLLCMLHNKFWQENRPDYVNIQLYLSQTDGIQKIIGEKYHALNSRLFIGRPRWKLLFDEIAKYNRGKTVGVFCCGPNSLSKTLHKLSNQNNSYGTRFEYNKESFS
Sequence of 5-hydroxytryptamine receptor 6 (P50406 whole entry): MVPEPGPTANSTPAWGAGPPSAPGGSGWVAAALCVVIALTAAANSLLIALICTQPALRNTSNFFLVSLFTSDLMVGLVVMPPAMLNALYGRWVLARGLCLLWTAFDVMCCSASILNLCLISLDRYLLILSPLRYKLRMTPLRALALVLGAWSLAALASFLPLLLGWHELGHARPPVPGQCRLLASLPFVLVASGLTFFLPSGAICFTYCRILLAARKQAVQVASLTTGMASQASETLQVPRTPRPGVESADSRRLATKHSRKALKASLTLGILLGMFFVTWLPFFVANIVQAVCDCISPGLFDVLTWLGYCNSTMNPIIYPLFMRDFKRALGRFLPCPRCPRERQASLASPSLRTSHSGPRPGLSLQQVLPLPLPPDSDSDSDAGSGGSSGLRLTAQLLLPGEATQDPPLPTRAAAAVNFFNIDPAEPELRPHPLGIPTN

Question: Which results are given for `COc1cccc(N2CCN(Cc3nc(N)nc(Nc4ccc(C)c(C)c4)n3)CC2)c1`?
Answer: IC50 [1]: > 10000 nM; IC50 [2]: 1250 nM; IC50 [3]: 1250 nM

Question: For `CN1CCN(c2nc(N)nc(Cc3c[nH]c4ccccc34)n2)CC1`, which Ki [4] is on record?
Answer: 9450 nM

Question: And the Ki [5]?
Answer: 16800 nM

Question: What about the Ki [6] of the same compound?
Answer: 1950 nM

Question: And the Kb [7]?
Answer: 18 nM

Question: Which results are given for `Cc1ccc(Cl)cc1-c1nc(N)nc(Nc2ccc(Br)cc2)n1`?
Answer: IC50 [8]: 50 nM; IC50 [9]: 50 nM; IC50 [10]: 70 nM; IC50 [11]: 90 nM; IC50 [12]: 70 nM; IC50 [13]: 75 nM; IC50 [14]: 104 nM; IC50 [15]: 37 nM; IC50 [16]: 100 nM; IC50 [17]: 50 nM

Question: Which IC50 [18] does the source give for `COc1cc(-c2nc(N)nc(Nc3ccc(C)cc3)n2)cc(OC)c1OC` here?
Answer: 1 nM

Question: And the IC50 [19]?
Answer: 210 nM

Question: What about the IC50 [20] of the same compound?
Answer: > 20000 nM

Question: What about the IC50 [21] of the same compound?
Answer: > 20000 nM

Question: For `Nc1nc(-c2ccccc2)nc(N2CCc3ccccc3C2)n1`, which IC50 [22] is on record?
Answer: 1950 nM

Question: Which results are given for `Cc1ccc(N2CCN(c3nc(N)nc(Nc4ccc(C)c(C)c4)n3)CC2)cc1`?
Answer: IC50 [1]: 7000 nM; IC50 [2]: 16000 nM; IC50 [3]: 3200 nM; IC50 [23]: 680 nM; IC50 [24]: 570 nM

Question: Which IC50 [25] does the source give for `COc1ccc(Nc2nc(N)nc(CN3CCN(c4ccccc4F)CC3)n2)cc1` here?
Answer: 590 nM

Question: What about the IC50 [26] of the same compound?
Answer: 77100 nM

Question: For `CN1CCN(c2nc(N)nc(C(C)(C)Sc3ccc4ccccc4c3)n2)CC1`, which Ki [4] is on record?
Answer: 2290 nM

Question: And the Ki [27]?
Answer: 39 nM

Question: And the Ki [5]?
Answer: 610 nM

Question: And the Ki [6]?
Answer: 300 nM

Question: What does the source list for `CCOc1ccc(Cl)cc1-c1nc(N)nc(Nc2ccc(CO)cc2)n1`?
Answer: IC50 [8]: < 12.5 nM; IC50 [9]: < 12.5 nM; IC50 [10]: 13 nM; IC50 [28]: < 12.5 nM; IC50 [11]: 40 nM; IC50 [12]: 25 nM; IC50 [13]: 25 nM; IC50 [29]: 29 nM; IC50 [14]: 25 nM; IC50 [15]: 32 nM; IC50 [16]: 41 nM; IC50 [17]: < 12.5 nM

Question: What does the source list for `Cc1cc(C)c(Cc2nc(N)nc(Nc3ccc(C#N)cc3)n2)c(C)c1`?
Answer: IC50 [30]: 82 nM; IC50 [31]: 3 nM; IC50 [32]: 15 nM; IC50 [33]: 45 nM; IC50 [34]: 0.8 nM

Question: Which results are given for `Nc1nc(CN2CCN(c3ccccc3F)CC2)nc(Nc2cccc3ccccc23)n1`?
Answer: IC50 [35]: 19400 nM; IC50 [36]: 4360 nM; IC50 [25]: 18000 nM; IC50 [26]: 1690 nM
